Test results as given in the NIST ThermoML archive (doi:10.1016/j.jct.2014.12.011).

Test: mn = molality of the nth substance listed, in mol/kg
Conditions: 100 kPa, Liquid, Alternating current cell with electrodes

CCCCCCCC(=O)[O-].[Na+] [sodium octanoate] + O
electrical conductivity [S/m]
Conditions	278.15 K	288.15 K	298.15 K	308.15 K	318.15 K	328.15 K
m1 = 0.04715	0.168	0.223	0.284	0.35	0.421	0.494
m1 = 0.0899	0.299	0.398	0.508	0.627	0.754	0.885
m1 = 0.132	0.416	0.555	0.709	0.876	1.06	1.242
m1 = 0.1699	0.5102	0.6723	0.856	1.06	1.28	1.522
m1 = 0.2149	0.606	0.797	1.02	1.27	1.538	1.845
m1 = 0.2635	0.6914	0.924	1.18	1.47	1.88	2.213
m1 = 0.3059	–	0.976	1.29	1.742	2.106	2.49
m1 = 0.3464	–	1.18	1.536	1.913	2.314	2.734
m1 = 0.3898	–	1.29	1.67	2.09	2.526	2.99
m1 = 0.4368	1.015	1.4	1.811	2.26	2.74	3.25
m1 = 0.4813	1.09	1.49	1.934	2.42	2.938	3.48
m1 = 0.5288	1.16	1.58	2.06	2.58	3.138	3.719
m1 = 0.5785	1.224	1.68	2.19	2.75	3.34	3.96
m1 = 0.63	1.29	1.77	2.317	2.912	3.545	4.205
m1 = 0.6829	1.35	1.87	2.45	3.08	3.75	4.448
m1 = 0.7337	1.412	1.96	2.57	3.236	3.94	4.68

CCCCCCCCCC(=O)[O-].[Na+] [sodium decanoate] + O
electrical conductivity [S/m]
Conditions	278.15 K	288.15 K	298.15 K	308.15 K	318.15 K	328.15 K
m1 = 0.01638	0.0626	0.083	0.106	0.131	0.157	0.184
m1 = 0.03189	0.116	0.155	0.198	0.244	0.292	0.344
m1 = 0.04823	0.17	0.226	0.288	0.356	0.428	0.504
m1 = 0.06109	0.21	0.279	0.357	0.441	0.53	0.625
m1 = 0.07519	0.2524	0.336	0.429	0.531	0.639	0.753
m1 = 0.09179	0.3003	0.399	0.5112	0.632	0.7605	0.896
m1 = 0.1079	0.344	0.459	0.584	0.719	0.865	1.021
m1 = 0.1249	0.388	0.5125	0.647	0.795	0.958	1.135
m1 = 0.1434	0.429	0.559	0.705	0.869	1.05	1.25
m1 = 0.1608	0.46	0.599	0.758	0.936	1.134	1.35
m1 = 0.1798	0.489	0.6405	0.8135	1.008	1.224	1.46
m1 = 0.1991	0.519	0.6831	0.8715	1.08	1.316	1.57
m1 = 0.2177	0.547	0.724	0.927	1.15	1.405	1.68
m1 = 0.2366	0.576	0.766	0.984	1.228	1.5	1.78
m1 = 0.2557	0.605	0.809	1.043	1.303	1.59	1.89

CCCCCCCCCC(=O)[O-].[Cs+] [cesium decanoate] + O
electrical conductivity [S/m]
Conditions	278.15 K	288.15 K	298.15 K	308.15 K	318.15 K	328.15 K
m1 = 0.00805	0.0479	0.0614	0.0757	0.091	0.107	0.123
m1 = 0.01759	0.101	0.13	0.161	0.193	0.227	0.261
m1 = 0.0274	0.151	0.197	0.241	0.29	0.342	0.396
m1 = 0.03769	0.207	0.261	0.323	0.39	0.46	0.533
m1 = 0.04818	0.261	0.327	0.404	0.487	0.575	0.667
m1 = 0.06109	0.316	0.405	0.502	0.604	0.713	0.824
m1 = 0.0725	0.3714	0.476	0.588	0.707	0.829	0.958
m1 = 0.08819	0.4405	0.564	0.696	0.835	0.988	1.147
m1 = 0.1027	0.5001	0.639	0.7914	0.954	1.121	1.3
m1 = 0.1172	0.554	0.715	0.883	1.06	1.24	1.44
m1 = 0.1325	0.6113	0.79	0.965	1.16	1.36	1.58
m1 = 0.153	0.697	0.875	1.07	1.28	1.514	1.76
m1 = 0.1705	0.7509	0.944	1.16	1.39	1.642	1.914
m1 = 0.1873	0.799	1.009	1.241	1.49	1.77	2.06
m1 = 0.2051	0.8512	1.08	1.33	1.604	1.9	2.211
m1 = 0.2256	0.914	1.16	1.438	1.735	2.05	2.39
m1 = 0.2463	0.976	1.25	1.542	1.86	2.207	2.57

CCCCCCCCCCCC(=O)[O-].[Na+] [sodium dodecanoate] + O
Conditions	electrical conductivity [S/m]
298.15 K, m1 = 0.01084	0.0726
298.15 K, m1 = 0.01211	0.0809
298.15 K, m1 = 0.01337	0.0892
298.15 K, m1 = 0.01462	0.0974
298.15 K, m1 = 0.01585	0.105
298.15 K, m1 = 0.01707	0.113
298.15 K, m1 = 0.01827	0.121
298.15 K, m1 = 0.01946	0.129
298.15 K, m1 = 0.02064	0.136
298.15 K, m1 = 0.0218	0.143
298.15 K, m1 = 0.02295	0.151
298.15 K, m1 = 0.02408	0.158
298.15 K, m1 = 0.0252	0.165
298.15 K, m1 = 0.02631	0.172
298.15 K, m1 = 0.02741	0.178
298.15 K, m1 = 0.02849	0.183
298.15 K, m1 = 0.02957	0.187
298.15 K, m1 = 0.03063	0.1909
298.15 K, m1 = 0.03168	0.194
298.15 K, m1 = 0.03271	0.198
298.15 K, m1 = 0.03374	0.201
298.15 K, m1 = 0.03476	0.204
298.15 K, m1 = 0.03576	0.207
298.15 K, m1 = 0.03675	0.2102
308.15 K, m1 = 0.01107	0.0928
308.15 K, m1 = 0.01239	0.103
308.15 K, m1 = 0.0137	0.114
308.15 K, m1 = 0.01499	0.125
308.15 K, m1 = 0.01626	0.135
308.15 K, m1 = 0.01752	0.145
308.15 K, m1 = 0.01876	0.155
308.15 K, m1 = 0.01999	0.165
308.15 K, m1 = 0.0212	0.175
308.15 K, m1 = 0.0224	0.185
308.15 K, m1 = 0.02359	0.194
308.15 K, m1 = 0.02476	0.203
308.15 K, m1 = 0.02591	0.212
308.15 K, m1 = 0.02706	0.219
308.15 K, m1 = 0.02819	0.225
308.15 K, m1 = 0.0293	0.231
308.15 K, m1 = 0.03041	0.236
308.15 K, m1 = 0.0315	0.2405
308.15 K, m1 = 0.03257	0.245
308.15 K, m1 = 0.03364	0.249
308.15 K, m1 = 0.0347	0.254
308.15 K, m1 = 0.03574	0.258
308.15 K, m1 = 0.03677	0.262
308.15 K, m1 = 0.03779	0.266
318.15 K, m1 = 0.01302	0.131
318.15 K, m1 = 0.01423	0.142
318.15 K, m1 = 0.01542	0.154
318.15 K, m1 = 0.0166	0.165
318.15 K, m1 = 0.01777	0.176
318.15 K, m1 = 0.01892	0.188
318.15 K, m1 = 0.02006	0.198
318.15 K, m1 = 0.02118	0.209
318.15 K, m1 = 0.02229	0.22
318.15 K, m1 = 0.02339	0.23
318.15 K, m1 = 0.02448	0.24
318.15 K, m1 = 0.02555	0.249
318.15 K, m1 = 0.02661	0.258
318.15 K, m1 = 0.02766	0.265
318.15 K, m1 = 0.0287	0.272
318.15 K, m1 = 0.02972	0.278
318.15 K, m1 = 0.03074	0.283
318.15 K, m1 = 0.03174	0.288
318.15 K, m1 = 0.03274	0.293
318.15 K, m1 = 0.03372	0.298
318.15 K, m1 = 0.03469	0.303
318.15 K, m1 = 0.03565	0.308
318.15 K, m1 = 0.0366	0.312
318.15 K, m1 = 0.03754	0.317
328.15 K, m1 = 0.01297	0.151
328.15 K, m1 = 0.01413	0.164
328.15 K, m1 = 0.01527	0.177
328.15 K, m1 = 0.01641	0.189
328.15 K, m1 = 0.01752	0.202
328.15 K, m1 = 0.01863	0.214
328.15 K, m1 = 0.01972	0.226
328.15 K, m1 = 0.0208	0.238
328.15 K, m1 = 0.02187	0.249
328.15 K, m1 = 0.02292	0.26
328.15 K, m1 = 0.02397	0.271
328.15 K, m1 = 0.025	0.282
328.15 K, m1 = 0.02602	0.293
328.15 K, m1 = 0.02703	0.303
328.15 K, m1 = 0.02802	0.311
328.15 K, m1 = 0.02901	0.319
328.15 K, m1 = 0.02999	0.326
328.15 K, m1 = 0.03095	0.332
328.15 K, m1 = 0.03191	0.338
328.15 K, m1 = 0.03285	0.344
328.15 K, m1 = 0.03379	0.35
328.15 K, m1 = 0.03471	0.355
328.15 K, m1 = 0.03563	0.36
328.15 K, m1 = 0.03653	0.366
